Molecules are shown by their SMILES.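 These data come from cells grown in 96-well plates and exposed to compound for 48 hours at five concentrations. GI50: concentration for 50% inhibition of growth. TGI denotes the concentration required for complete inhibition of growth.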 Some results are limits rather than exact numbers.

The source of these data is PubChem BioAssay (NCI).

Test in all cases: growth of human tumour cells (NCI), 48 h
Experiment [1] concerns KM12 colon.
The subject of experiment [2] is MOLT-4 leukemia.
The subject of experiment [3] is SK-OV-3 ovarian.
The subject of experiment [4] is A549 NSCLC.
Experiment [5] deals with SF-268 CNS.
The subject of experiment [6] is NCI-H23 lung.
Experiment [7] has as its system NCI-H522 lung.
Experiment [8] deals with HOP-92 NSCLC.
In experiment [9] the test system is EKVX NSCLC.
Experiment [10] deals with NCI-H226 lung.

With `CN(C)CCC=C1c2ccccc2C(C)(C)c2ccccc21`, the GI50 in [1] is 14.8 µM; in experiment [2] it was 7.18 µM; in experiment [3], 15.5 µM; in [4], 15.8 µM; in experiment [5] it was 14.7 µM; in experiment [6], 14 µM. In addition, the GI50 was 17.9 µM in [7], 1.88 µM in [8] and 14.4 µM in experiment [9]. The TGI is 28.4 µM in experiment [1]; 23 µM in [2]; 28.8 µM in [3]; 32 µM in [4]; 27.8 µM in [5]; 28.9 µM in experiment [6]. The TGI in experiment [7] was 37.1 µM; in experiment [8] it was 14.7 µM; in experiment [9] it was 30 µM.
For the compound `COc1ccc2c(c1)C1OCCNC1CC2` (configuration not stated), the TGI in [1], in experiment [10], in [2], in experiment [3], in [4] and in experiment [5] was over 100 µM in each case. The TGI in experiment [6], in experiment [7] and in [9] was over 100 µM throughout.
Regarding `Cc1cc(=O)n2c3c(c4c(cc13)c(CO)cc(=O)n4C)OC2`, the TGI in [1] was over 100 µM; in experiment [10], 25.8 µM; in experiment [3] it was over 100 µM; in experiment [4], over 100 µM; in experiment [5], 52.6 µM; in experiment [6], 48.1 µM. The TGI in [7] was 17.7 µM; in experiment [8], 97.1 µM; in experiment [9], over 100 µM.
In the case of `CCCC[n+]1c(/C=C\c2c(OC)cc(OC)cc2OC)ccc2ccccc21`, the GI50 in experiment [1] is 0.345 µM; in experiment [10], 1.92 µM; in experiment [2] it was 1.64 µM; in [3], 1.98 µM; in experiment [4], 1.18 µM; in experiment [5], 2.03 µM. For the same compound, the GI50 in experiment [6] was 0.779 µM; in experiment [7], 0.678 µM; in experiment [8], 0.502 µM. Further, the TGI amounted to 1.59 µM in experiment [1]; 12.6 µM in experiment [10]; 8.92 µM in experiment [2]; 8.83 µM in experiment [3]; 10.5 µM in experiment [4]; 10.3 µM in experiment [5]. In addition, the TGI in experiment [6] stood at 8.17 µM; in [7], 3.07 µM; in experiment [8] it was 4.8 µM.
As to `COc1cccc(-n2cc(-c3nc(Nc4cc(C)[nH]n4)c4ccccc4n3)nn2)c1`, the GI50 was 1.69 µM in experiment [1]; 4.02 µM in [10]; 2.01 µM in experiment [2]; 2.34 µM in experiment [3]; 2.33 µM in experiment [4]; 5.39 µM in experiment [5]. In addition, the GI50 in experiment [6] is 6.28 µM; in experiment [7] it was 3.38 µM; in experiment [8], 1.67 µM. In addition, the TGI in [1] is 7.39 µM; in experiment [10], 10.6 µM; in [2], 9.8 µM; in [3], 10.8 µM; in experiment [4], 11.4 µM; in experiment [5], 13.8 µM. For the same compound, the TGI in experiment [6] came out at 22.4 µM; in experiment [7] it was 10.2 µM; in [8], 9.53 µM.
As for `COC(=O)NN1C(C)=C(C(=O)OC)C2(C#N)C(C(=O)OC)=C(C)N(NC(=O)OC)C12N` (configuration not stated), the TGI in experiment [10], in experiment [2], in [3], in experiment [4], in [5] and in experiment [6] was over 100 µM throughout. Moreover, the TGI in experiment [7], in [8] and in [9] was over 100 µM each time.
Regarding `O=C(NNc1ccc(F)cc1)C1CCC(CNS(=O)(=O)c2ccc(Cl)c(Cl)c2)CC1` (configuration not stated), the GI50 in experiment [1] is 1.38 µM; in experiment [10], 15.6 µM; in experiment [3], 28.9 µM; in experiment [4] it was 0.842 µM; in experiment [5] it was 4.76 µM; in experiment [7], 22.8 µM. Moreover, the GI50 was 7.35 µM in experiment [8] and 7.98 µM in experiment [9]. The TGI in experiment [1] is 42.6 µM; in [10], over 50 µM; in [3], over 50 µM; in experiment [4], 4.93 µM; in experiment [5], over 50 µM; in experiment [7], over 50 µM. Besides, the TGI in experiment [8] was 37.5 µM; in experiment [9] it was over 50 µM.
On to `Cc1ccc2c(c1)C1C(CO2)C(c2ccccc2)=NN1c1ccccc1` (configuration not stated), for which the TGI in experiment [1], in [2], in [3], in experiment [4], in experiment [5] and in experiment [6] was over 100 µM each time. In addition, the TGI in [7], in experiment [8] and in experiment [9] was over 100 µM throughout.
Consider `CC(=O)OC12c3ccccc3-c3ccccc3C1C(C(=O)O)C2(Cl)C(=O)O` (configuration not stated), for which the TGI in [1], in [10], in experiment [2], in [3], in experiment [5] and in experiment [6] was over 10 µM each time. The TGI in experiment [7], in [8] and in experiment [9] was over 10 µM in each case.
As for `CSc1ccc(OCC2OC2O)cc1` (configuration not stated), the TGI is over 95.9 µM in [1]; over 100 µM in experiment [10]; over 75.5 µM in [2]; over 100 µM in experiment [3]; over 100 µM in [4]; over 100 µM in experiment [6]. Besides, the figures for the TGI in [7], in experiment [8] and in experiment [9] were over 81.6 µM, over 100 µM and over 100 µM, respectively.
`C=C1CC[C@@H]2[C@](C)(COC(C)=O)[C@H](OC(C)=O)CC[C@@]2(C)[C@@H]1CC(Nc1ccc(S(=O)(=O)Nc2cc(C)on2)cc1)C1=CCOC1=O` (some centres not stated): the GI50 in [1] is 1.83 µM; in [2] it was 2.12 µM; in experiment [3], 11 µM; in experiment [4], 4.75 µM; in experiment [5] it was 2.35 µM; in experiment [6], 2.31 µM. Moreover, the GI50 is 1.04 µM in [7], 3.07 µM in experiment [8] and 11 µM in [9]. Moreover, the TGI worked out at 3.69 µM in experiment [1]; 6.39 µM in [2]; 23.1 µM in [3]; 15.4 µM in experiment [4]; 6.11 µM in experiment [5]; 5.9 µM in [6]. The TGI amounted to 2.42 µM in [7], 8 µM in [8] and 25.9 µM in experiment [9].
